Assay results: article PMC12361428 (Nature Communications, 2025)
“And” between values parts separate entries of the source, which are not always exact repeats. Equal values may be shown once.

Assays:
[1] = molecular target: A1AR; settings: source not given; cited from earlier work
[2] = system: Nluc-tagged hA3AR-BRIL-S97R; test: NanoBRET washout (irreversible binding) assay vs XAC-630
[3] = system: A3AR H95^3.37 alanine mutation; settings: cited from earlier work

Structure (SMILES) | pKi [1] | NanoBRET washout assay, normalised signal (Figure S2G), individual replicates ([2]; 4 x Wash) | NanoBRET washout assay, normalised signal (Figure S2G), individual replicates ([2]; Control (no wash)) | decrease in binding [3]
CCCn1c(=O)c2[nH]c(C3CCCCC3)nc2n(CCCNC(=O)c2ccc(S(=O)(=O)F)cc2)c1=O [DU172] | 7.4 |  |  | 
O=C(Cc1ccccc1)Nc1nc2ccc(Cl)cc2c2nc(-c3ccco3)nn12 [MRS1220, 9-Chloro-2-(2-furanyl)-5-((phenylacetyl)amino)-[1,2,4]triazolo[1,5-c]quinazoline] |  | 60.7809 and 60.2862 and 64.3691 | 11.5596 and 12.4414 and 6.2814 and 13.7989 | 
CNC(=O)[C@H]1O[C@@H](n2cnc3c(NCc4cccc(I)c4)nc(Cl)nc32)[C@H](O)[C@@H]1O [Namodenoson] |  |  |  | 30 fold
CC[C@@H]1CN2C(=O)N(C)c3nc(-c4ccccc4)[nH]c3C2=N1 [PSB11] |  | 116.307 and 107.384 and 90.4226 and 99.5492 | 1.581 and 3.183e-15 and -2.281 and -2.887e-15 | 
